Reference: ChEMBL document CHEMBL1201862, “PubChem BioAssay data set” (2004)
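Method: 48-hour compound exposure of cells in 96-well plates, five concentrations, linear interpolation of endpoints. The concentration for 50% growth inhibition is given as GI50.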 The source made the active and inactive calls. No stated cut-off is given here; in the data, active = GI50 up to about 1.1 µM and inactive = higher.

What was measured:
Test in all cases: NCI-60 cell line screen, 48 h
[1] = system: 786-0
[2] = system: A498
[3] = system: A549
[4] = system: ACHN
[5] = system: CAKI-1
[6] = system: CCRF-CEM
[7] = system: DLD-1
[8] = system: DMS-114
[9] = system: DMS-273
[10] = system: EKVX
[11] = system: HCC 2998
[12] = system: HCT-116
[13] = system: HL-60
[14] = system: HOP-62
[15] = system: HOP-92
[16] = system: HT-29
[17] = system: IGROV-1
[18] = system: K562
[19] = system: KM-20L2
[20] = system: KM12
[21] = system: LXFL 529
[22] = system: M14
[23] = system: M19-MEL
[24] = system: MOLT-4
[25] = system: Malme-3M
[26] = system: NCI-H226
[27] = system: NCI-H23
[28] = system: NCI-H460
[29] = system: NCI-H522
[30] = system: OVCAR-4
[31] = system: OVCAR-5
[32] = system: OVCAR-8
[33] = system: RXF 393
[34] = system: RXF 631
[35] = system: SF-268
[36] = system: SF-295
[37] = system: SF-539
[38] = system: SK-MEL-28
[39] = system: SK-MEL-2
[40] = system: SK-MEL-5
[41] = system: SK-OV-3
[42] = system: SN12C
[43] = system: SNB-19
[44] = system: SNB-75
[45] = system: SNB-78
[46] = system: SR
[47] = system: SW-620
[48] = system: TK-10
[49] = system: U-251
[50] = system: UACC-257
[51] = system: UACC-62
[52] = system: UO-31
[53] = system: XF498

Measured: GI50

c1ccc2c(c1)[nH]c1c2nc2ncccn21
inactive: [1] > 100 µM | [2] > 100 µM | [3] > 100 µM | [4] > 100 µM | [5] > 100 µM | [6] > 100 µM | [7] > 100 µM | [8] > 100 µM | [9] > 100 µM | [10] > 100 µM | [11] > 100 µM | [12] > 100 µM | [13] > 10 µM | [14] > 100 µM | [15] > 100 µM | [16] > 100 µM | [17] > 100 µM | [18] > 100 µM | [19] > 100 µM | [20] > 100 µM | [21] > 100 µM | [22] > 100 µM | [23] > 100 µM | [24] > 100 µM | [25] > 100 µM | [26] > 100 µM | [27] > 100 µM | [28] > 100 µM | [29] > 100 µM | [30] > 100 µM | [31] > 100 µM | [32] > 100 µM | [33] > 100 µM | [34] > 100 µM | [35] > 100 µM | [36] > 100 µM | [37] > 100 µM | [38] > 100 µM | [39] > 100 µM | [40] > 100 µM | [41] > 100 µM | [42] > 100 µM | [43] > 100 µM | [44] > 100 µM | [45] > 100 µM | [46] > 100 µM | [47] > 100 µM | [48] > 100 µM | [49] > 100 µM | [50] > 100 µM | [51] > 100 µM | [52] > 100 µM | [53] > 100 µM
